The record followed here is patent publication US20210228552A1, “METHOD FOR ADJUSTING RAS UBIQUITINATION” (Xiamen University, priority 2018, published 2021).

Each structure is given as a SMILES string. Entries after “also recorded” stand apart in the source; their conditions may differ.

One assay concerns SW620 cells. Kind of assay: Colony forming ability on soft agar, SW620 cells. Type of assay: cell-based, Human. The note with it: 10-30 days, FIG. 4(b). As to the method: (§1) i. 1% agar was prepared and sterilized under high pressure. 1% Agar was heated and melted in a boiling water bath before use, then cooled in a 40° C. water bath (standing for at least 30 minutes and cooling the agar to 40° C.); and 2×DMEM/FBS was placed in a warm bath at the same time;
(§2) ii. 0.5% bottom agar was prepared by mixing 1% agar and 2×DMEM/FBS in a sterile tube at a volume ratio of 1:1. The mixture was quickly added to a 6-well plate, 1.5 mL per well, gently shake it well, and it was stood at room temperature to be solidified (after solidification, it can be stored at 4° C. for 1 week. Leave at room temperature for at least 30 minutes before use to restore it to room temperature).
(§3) i. A final concentration of 0.3% agar+1×DMEM/FBS mixture was prepared in sterile tubes by using 1% agar at a temperature of 40° C., 2×DMEM/FBS and sterile water. The prepared mixed solution was put into a 40° C. water bath kettle for later use;
(§4) ii. The cells were digested by trypsin and counted, and the cell density was adjusted according to the needs of the experiment; […]

The test system of a further assay is MCF-7 cells. Put plainly: Colony forming ability on soft agar, MCF-7 cells. Type of assay: cell-based, Human. The note with it: 10-30 days, FIG. 4(a). As to the method: as §1, §2, §3, §4
Assay [1] deals with T1, K-Ras-G12V (Homo sapiens, UniProt P01116, G12V). Put plainly: Endogenous K-Ras-G12V protein level in SW620 cells (Western blotting). Type of assay: cell-based. Also on record: endogenous in cells; host or cells: SW620. Particulars: 2.5-20 μM, 24 h, FIG. 3(a). As to the method: Compounds that can Decrease the Level of Endogenous K-Ras-G12V were Screened in SW620 Cells
1) Cell plating: SW620 cells in logarithmic growth phase were inoculated into 24-well plates with 2×10^4/well and cultured in 37° C. and 5% CO2 incubator.
2) Cell administration: after 24 hours of culture, various drug stock solutions were diluted […]; the stock solution from the 24-well plate was discarded, then the prepared drug solution was added, with taking the DMSO group as a blank control; after the drug was added, it was transferred to the CO2 incubator at 37° C. to continue the culture.
(§5) 3) Detection of K-Ras protein level: 24 hours after administration, liquid in the well was discarded, the cells were routinely collected, the cells were rinsed twice with 1×PBS, and the cell lysate was added to extract the total cell protein. The protein concentration was determined by BCA method. […]
4) Calculation of single point K-Ras protein degradation rate: quantitative and calibration analysis on K-Ras and β-actin were performed by Image-Lab software, and then the intracellular K-Ras degradation rate was calculated according to the following formula: single point K-Ras protein degradation rate (%)=(control group-administration group)/control group×100%. […]
(A western blot detects proteins with antibodies after separation by electrophoresis.)

Assay [2] concerns the target T1, K-Ras-G12V. Kind of assay: Exogenous Flag-K-Ras-G12V protein level in transfected HEK293T cells (Western blotting). Type of assay: cell-based. Particulars: HEK293T cells transfected with Flag-K-Ras-G12V, 2.5-20 μM, 24 h, FIG. 3(b). The protocol: Compounds that can Decrease the Level of Exogenous K-Ras-G12V were Screened in HEK293T Cells
1) Cell plating: HEK293T cells in logarithmic growth phase were inoculated into 12-well plates and cultured in 37° C. and 5% CO2 incubator. The best inoculation amount was at a cell density of 70%-90% when transfected the next day. […]
as §5
4) Calculation of single point K-Ras protein degradation rate: quantitative and calibration analysis on Flag-K-Ras and β-actin were performed by Image-Lab software, and then the intracellular Flag-K-Ras degradation rate was calculated according to the following formula: single point Flag-K-Ras protein degradation rate (%)=(control group-administration group)/control group×100%. […]

In a further assay the test system is HT-29 cells. Kind of assay: Colony forming ability on soft agar, HT-29 cells. Format: cell-based, Human. The note with it: HT-29 cells (Raf kinase mutation), 10-30 days, FIG. 4(c). The protocol: as §1, §2, §3, §4

As to `O=C(NCc1ccccc1C(F)(F)F)c1c[nH]c(-c2n[nH]c3ncccc23)c1` [ZT-10-158-01], the “colony forming ability on agar” value in the assay with SW620 cells is “can selectively inhibit the colony formation; also recorded: effective in inhibiting colony forming ability”; in the assay on MCF-7 cells, “can selectively inhibit the colony formation; also recorded: effective in inhibiting colony forming ability”; in the assay with HT-29 cells, “no significant inhibitory effect; also recorded: did not inhibit the colony forming ability”. Also, the “level of endogenous K-Ras-G12V protein” value at K-Ras-G12V [1] is “effective in decreasing K-Ras protein levels in cells, and in a positive concentration-dependent correlation; also recorded: effective in decreasing the level of endogenous K-Ras-G12V protein in SW620 cells with a positive concentration-dependent inhibitory effect”. Also, the “level of exogenous K-Ras-G12V protein” value at K-Ras-G12V [2] was “effective in decreasing K-Ras protein levels in cells, and in a positive concentration-dependent correlation; also recorded: effective in decreasing the level of exogenous K-Ras-G12V protein in HEK293T cells with a positive concentration-dependent inhibitory effect”.
